Here are results for one compound from patent publication US20160193240A1, “Ulmoside-A: Useful For Prevention Or Cure Of Metabolic Diseases” (COUNCIL OF SCIENTIFIC & INDUSTRIAL RESEARCH, priority 2013, published 2016).

Assay [1] deals with AdipoRs. As to the kind of experiment: Competitive radio-ligand binding assay with 125I-adiponectin on C2C12 myotubes. The arrangement: species or system mouse. The following applies: 10^-11 M to 10^-6 M unlabeled ULMA, 12 hours, 4° C. The procedure:
C. ULMA competes with ^125I-globular adiponectin (gAd) for binding to AdipoRs. C2C12 myotubes in 12 well plates were incubated with 2 μl of 10 uCi/ml ^125I-adiponectin (this amount gives 50% binding to the cells) in ice-cold PBS and 0.1% bovine serum albumin for 12 h in presence or absence of different doses of unlabeled ULMA (10^−11M, 10^−10 M, 10^−9 M, 10^−8 M, 10^−7M, 10^−6M) at 4° C. The cells were then washed 20 times in PBS and then lysed. 5 μl of the lysate was used for protein estimation using standard Bradford assay and rest of the lysate was used for measuring radioactivity in a gamma-counter (Cole Palmer). The count per minute was normalized with protein concentration and plotted as % binding compared to wells treated with vehicle only (0.1% vol/vol DMSO). Data represents mean±SEM from three experiments performed in triplicates.
Competitive Radio-Ligand Binding Assay
Further validation of AdipoR-ULMA interaction was obtained using a competitive radio-ligand binding assay. […] 5 μl of the lysate was used for protein estimation using standard Bradford assay and rest of the lysate was used for measuring radioactivity in a gamma-counter (Cole Palmer). […]

In assay [2] the test system is C2C12 myotubes. Description: Western blot of PGC-1α, PPAR and GLUT4 in C2C12 myotubes. The format is cell-based, mouse. The following applies: 10 nM, 24 or 48 hours. Here is the method: B. ULMA induces protein levels of PGC-1α, PPARα and Glut4. C2C12 myotubes in 10 cm dish were treated with vehicle (DMSO) or 10 nM ULMA in DMSO for 24 or 48 h followed by western blotting with indicated antibodies. Data is representative of three independent experiments showing identical pattern.
Adiponectin enhances transcription of genes regulating fatty acid transport, fatty acid-oxidation and mitochondrial uncoupling proteins in skeletal muscle and myotubes (T. Kadowaki, T. Yamauchi, N. Kubota, K. Hara, K. Ueki, K. Tobe. J Clin Invest. 116(7): 1784-92. 2006; S. Dridi, M. Taouis. Journal of Nutritional Biochemistry 20 (2009): 831-839. 2009; M. Iwabu, T. Yamauchi, M. Okada-Iwabu, K. Sato, T. Nakagawa, M. Funata, M. Yamaguchi, S. Namiki, R. Nakayama, M. Tabata, H. Ogata, N. Kubota, I. Takamoto, Y. K. Hayashi, N. Yamauchi, H. Waki, M. Fukayama, I. Nishino, K. Tokuyama, K. Ueki, Y. Oike, S. Ishii, K. Hirose, T. Shimizu, K. Touhara, T. Kadowaki. Nature; 464(7293):1313-1319. 2010). The ability of ULMA to influence expression of these genes were checked in c2c12 myotubes. C2C12 myotubes in 6 well plates were treated with 10 nM ULMA or vehicle (DMSO) for 12 hours or 24 hours. Following treatment, the cells were washed with ice-cold PBS and RNA was extracted using Trizol (Ambion) according to manufacturer's instructions. The RNAs were quantitated using a spectrophotometer (nanophotometer; Implen GMBH) and 1 μg RNA was used to prepare cDNA using a cDNA synthesis kit (Applied Biosystems). cDNAs were then used for quantitative real-time PCR for indicated genes (FIG. 3A) using Veriquest SYBR green QRT-PCR mastermix (US Biologicals) and a Roche lightcycler 480 thermal cycler (Roche Diagnostics). Beta-actin was used as normalizing control. The relative mRNA level was quantitated using ddCT method. […] Adiponectin is also known to induce muscle and adipose glucose transporter 4 (GLUT4) expressions; and the ability of ULMA to induce the expression of GLUT4, PPAR and PGC-1α was investigated by western blotting. […]

In assay [3] the test system is C2C12 myotubes. Description: QRT-PCR of fatty acid transport, oxidation, mitochondrial biogenesis genes in C2C12 myotubes. The format is cell-based, mouse. To be noted: 10 nM, 12 or 24 hours. The procedure:
A. ULMA induces expression of fatty acid transport, oxidation, mitochondrial biogenesis and energy dissipation related genes. C2C12 myotubes in 6 well plates were treated with 10 nM ULMA or vehicle (designated as 0 h; 0.1% vol/vol DMSO) for 12 h or 24 h. Following treatment, RNA was extracted and 1 μg RNA from each well was used to prepare cDNA and the cDNAs were then used for quantitative real-time PCR for indicated genes. Beta-actin was used as normalizing control. The relative mRNA level was quantitated using ddCT method and plotted as fold activity over vehicle treated control (0 h). Data is mean±SEM of 4-6 independent experiments performed in triplicates. *p<0.05, **p<0.01, ***p<0.001 compared to vehicle (DMSO) treated controls as determined by two tailed unpaired student's t-test.
Adiponectin enhances transcription of genes regulating fatty acid transport, fatty acid-oxidation and mitochondrial uncoupling proteins in skeletal muscle and myotubes (T. Kadowaki, T. Yamauchi, N. Kubota, K. Hara, K. Ueki, K. Tobe. J Clin Invest. 116(7): 1784-92. 2006; S. Dridi, M. Taouis. Journal of Nutritional Biochemistry 20 (2009): 831-839. 2009; M. Iwabu, T. Yamauchi, M. Okada-Iwabu, K. Sato, T. Nakagawa, M. Funata, M. Yamaguchi, S. Namiki, R. Nakayama, M. Tabata, H. Ogata, N. Kubota, I. Takamoto, Y. K. Hayashi, N. Yamauchi, H. Waki, M. Fukayama, I. Nishino, K. Tokuyama, K. Ueki, Y. Oike, S. Ishii, K. Hirose, T. Shimizu, K. Touhara, T. Kadowaki. Nature; 464(7293):1313-1319. 2010). The ability of ULMA to influence expression of these genes were checked in c2c12 myotubes. C2C12 myotubes in 6 well plates were treated with 10 nM ULMA or vehicle (DMSO) for 12 hours or 24 hours. Following treatment, the cells were washed with ice-cold PBS and RNA was extracted using Trizol (Ambion) according to manufacturer's instructions. The RNAs were quantitated using a spectrophotometer (nanophotometer; Implen GMBH) and 1 μg RNA was used to prepare cDNA using a cDNA synthesis kit (Applied Biosystems). cDNAs were then used for quantitative real-time PCR for indicated genes (FIG. 3A) using Veriquest SYBR green QRT-PCR mastermix (US Biologicals) and a Roche lightcycler 480 thermal cycler (Roche Diagnostics). Beta-actin was used as normalizing control. The relative mRNA level was quantitated using ddCT method. […] Adiponectin is also known to induce muscle and adipose glucose transporter 4 (GLUT4) expressions; and the ability of ULMA to induce the expression of GLUT4, PPAR and PGC-1α was investigated by western blotting. C2C12 myotubes in 10 cm dish were treated with vehicle (DMSO) or 10 nM ULMA in DMSO for 24 hours or 48 hours followed by western blotting as described [S. K. Dwivedi, N. Singh, R. Kumari, J. S. Mishra, S. Tripathi, P. Banerjee, P. Shah, V. Kukshal, A. M. Tyagi, A. N. Gaikwad, R. K. Chaturvedi, D. P. Mishra, A. K. Trivedi, S. Sanyal, N. Chattopadhyay, R. Ramachandran, M. I. Siddiqi, A. Bandyopadhyay, A. Arora, T. Lundasen, S. P. Anakk, D. D. Moore, S. Sanyal. Mol Endocrinol. 25(6): 922-932. 2011).

On to `O=C1c2c(cc(O)c([C@@H]3O[C@H](CO)[C@@H](O)[C@H](O)[C@H]3O)c2O)O[C@@H](c2ccc(O)c(O)c2)[C@@H]1O` [ULMA, (2S,3S)-(+)-3′,4′,5,7-tetrahydroxydihydroflavonol-6-C-β-D-glucopyranoside], for which, in assay [1], the “displacement of 125I-adiponectin binding by cold ULMA” value was “dose-dependently replaced 125I-adiponectin binding”. Moreover, in assay [2], the GLUT4 protein level result is reported as “induced protein levels”, the PGC-1α protein level entry is recorded as “induced protein levels” and the PPAR protein level result was “induced protein levels”. Also, in assay [3], the “ACOX1 mRNA expression” value is given as “enhanced expressions”, the “CD36 mRNA expression” value was “induced expression”, the “CPT1B mRNA expression” value is “enhanced expressions” and the “FABP3 mRNA expression” value is reported as “induced expression”. Further, in assay [3], the “PGC-1α mRNA expression” value was “induced expression”, the “PPARα mRNA expression” value is on record as “induced expression”, the “fatty acyl CoA synthetase mRNA expression” value was “enhanced expressions” and the “uncoupling protein 2 mRNA expression” value was “induced expressions”. Further, in assay [3], the “uncoupling protein 3 mRNA expression” value is “induced expressions”.
